Data: patent US11254640B2, “N-substituted indoles and other heterocycles for treating brain disorders” (The Regents of the University of California, priority 2019, dated 2022)
Read-outs that look alike come from different tables or passages of the source.

Legend:
Type in all cases: cell-based
5HT2A sensor [1] = assay: 5HT2A sensor assay, antagonist mode (sLight1.3s HEK293T stable line); conditions: relative to 5-HT at 100 nM; for 5HT2A Antagonist mean @ 100 nM (%): 100 nM compound; for 5HT2A Antagonist mean @ 10 μM (%): 10 μM compound; for 5HT2A Antagonist mean @ 100 μM (%): 100 μM compound
How it was run: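 Inactivation score is computed from membrane dFF as (dFF(compound+5HT)−dFF(5HT))/dFF(5HT), with HBSS-only fluorescence as Fapo. Final concentrations: 5-HT 100 nM added first, then compound at 100 nM, 10 μM or 100 μM in 0.1% DMSO. Triplicates; FITC imaging, 5 fields per well.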

rat cortical neurons = assay: Neurite outgrowth assay; conditions: Cortical neurone, 1 hour treatment at DIV 4, analysed DIV 7, fold vs DMSO control
Excerpt: Neurite outgrowth assay. Changes in the pattern of neurite outgrowth have been implicated in neurodegenerative disorders as well as traumatic injuries. The discovery of new compounds that can positively affect neuritogenesis are important for developing new therapeutics for neurological diseases. Measurement of neurite outgrowth of rat cortical neurons using an automated image-based assay was used to determine the neuroplastic effects of the compounds of the present invention. In some embodiments, a compound of the present invention increases the pattern of neurite outgrowth. In some embodiments, a compound of the present invention increases neurite average length compared to a control. In some embodiments, a compound of the present invention increases neurite branch points compared to a control. In some embodiments, a compound of the present invention increases neurite average length and neurite branch points compared to a control.
Neurite Outgrowth Assay. Rat cortical neurons (20,000 cells/well) were freshly isolated from embryonic day 18 rats and cultured in Neurobasal Medium (+B27). The cultured cells were plated in 96 well-plates (avoiding external wells). At DIV 4, the neurons were treated with compound or control (10 μM) for 1 hour followed by complete washout of the compound. At DIV 7, the neurons were analyzed. The experiments were performed in triplicate. Neurite outgrowth was measured analyzing the following parameters: Number of Cell Bodies, total neurite length (pixels), Root Count, Segments, Extremities Count and node points. Changes in the pattern of neurite outgrowth of the neurons were analyzed by immunocytochemistry against β-III-tubulin. Pictures were acquired by the CellInsight CX7 from Thermo Fisher and analyzed using its software. Results generated in the equipment were maximum neurite length, extremity count, root count, dendrite branch points, and total neurite length. The results were compared to DMSO control, representing the fold-change in neuronal outgrowth.

5HT2A sensor [2] = assay: 5HT2A sensor assay, agonist mode (sLight1.3s HEK293T stable line); conditions: percent relative to 5-HT at 100 uM; for 5HT2A Agonist mean @ 100 nM (%): 100 nM compound; for 5HT2A Agonist mean @ 10 μM (%): 10 μM compound; for 5HT2A Agonist mean @ 100 μM (%): 100 μM compound
How it was run: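 Agonist mode in HEK293T cells stably expressing the sLight1.3 5HT2A sensor, washed into HBSS; compounds at final 100 μM, 10 μM and 100 nM (0.1% DMSO), triplicate wells. Membrane fluorescence (ex 460, em 512-542 nm) imaged before and after addition; dFF=(Fsat−Fapo)/Fapo, expressed as percent activation (DMSO=0, 5HT=100).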

5HT2A = biological target: T1, 5HT2A (Homo sapiens, UniProt P28223); assay: Calcium flux assay (Calcium secondary messenger pathway); conditions: agonist mode
T1 construct: expressed in transfected cells
T1 sequence (P28223 whole entry): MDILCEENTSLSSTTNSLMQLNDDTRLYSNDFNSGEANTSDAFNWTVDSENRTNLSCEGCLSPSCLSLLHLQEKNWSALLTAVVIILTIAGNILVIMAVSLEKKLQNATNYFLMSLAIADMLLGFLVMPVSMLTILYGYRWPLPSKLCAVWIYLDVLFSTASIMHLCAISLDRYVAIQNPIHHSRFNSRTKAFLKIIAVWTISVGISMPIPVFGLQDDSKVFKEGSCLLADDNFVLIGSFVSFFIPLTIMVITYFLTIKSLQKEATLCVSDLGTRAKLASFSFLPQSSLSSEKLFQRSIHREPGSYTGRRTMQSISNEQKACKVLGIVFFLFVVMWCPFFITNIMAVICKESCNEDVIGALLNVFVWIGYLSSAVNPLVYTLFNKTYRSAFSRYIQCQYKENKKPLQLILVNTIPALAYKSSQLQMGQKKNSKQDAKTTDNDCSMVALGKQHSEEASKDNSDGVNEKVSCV
Excerpt: Calcium Flux Assay. Calcium Secondary Messenger Pathway. The Calcium No Wash^PLUS assay monitors the activation of a GPCR (e.g., 5HT2A) via Gq secondary messenger signaling in a live cell, non-imaging assay format. Calcium mobilization in PathHunter® cell lines or other cell lines stably expressing Gq-coupled GPCRs (e.g., 5HT2A) is monitored using a calcium-sensitive dye that is loaded into cells. GPCR (e.g., 5HT2A) activation by a compound results in the release of calcium from intracellular stores and an increase in dye fluorescence that is measured in real-time. In some embodiments, the ability of a compound of the present invention to modulate 5-HT2A function is determined using a calcium flux assay. In some embodiments, a compound of the present invention activates a calcium flux assay.
Calcium Secondary Messenger Pathway. Cell lines were expanded from freezer stocks according to standard procedures. Cells were seeded in a total volume of 20 μL into black-walled, clear-bottom, Poly-D-lysine coated 384-well microplates and incubated at 37° C. for the appropriate time prior to testing. Assays were performed in 1× Dye Loading Buffer consisting of 1× Dye, 1× Additive A and 2.5 mM Probenecid in HBSS/20 mM Hepes. Probenicid was prepared fresh. Cells were loaded with dye prior to testing. Media was aspirated from cells and replaced with 20 μL Dye Loading Buffer. Cells were incubated for 30-60 minutes at 37° C.
For agonist determination, cells were incubated with sample to induce response. After dye loading, cells were removed from the incubator and 10 μL HBSS/20 mM Hepes was added. 3× vehicle was included in the buffer when performing agonist dose curves to define the EC80 for subsequent antagonist assays. Cells were incubated for 30 minutes at room temperature in the dark to equilibrate plate temperature. Intermediate dilution of sample stocks was performed to generate 4× sample in assay buffer. Compound agonist activity was measured on a FLIPR Tetra (MDS). Calcium mobilization was monitored for 2 minutes and 10 μL 4× sample in HBSS/20 mM Hepes was added to the cells 5 seconds into the assay.
Compound activity was analyzed using CBIS data analysis suite (ChemInnovation, CA). For agonist mode assays, percentage activity is calculated using the following formula: % Activity=100%×(mean RFU of test sample−mean RFU of vehicle control)/(mean MAX RFU control ligand−mean RFU of vehicle control).

[3] = read-out: Neurite Average Length @ 10 μM
[4] = read-out: Neurite Branch Points: @ 10 μM

Row | SMILES | 5HT2A Antagonist mean @ 100 nM (%) (5HT2A sensor [1]) | 5HT2A Antagonist mean @ 10 μM (%) (5HT2A sensor [1]) | 5HT2A Antagonist mean @ 100 μM (%) (5HT2A sensor [1]) | fold induction at 10 µM (rat cortical neurons; [3]) | fold induction at 10 µM (rat cortical neurons; [4]) | 5HT2A Agonist mean @ 100 nM (%) (5HT2A sensor [2]) | 5HT2A Agonist mean @ 10 μM (%) (5HT2A sensor [2]) | 5HT2A Agonist mean @ 100 μM (%) (5HT2A sensor [2]) | EC50 (5HT2A)
1 | COc1cc2c(ccn2C[C@@H](C)N(C)C)cc1F [Example 70, (R)-1-(5-fluoro-6-methoxy-1H-indol-1-yl)-N,N-dimethylpropan-2-amine] | B (inhibits 5HT response by 75% to 100%) | B (inhibits 5HT response by 75% to 100%) | A (inhibits 5HT response by >100%) | 1.5 to 3 | 1.5 to 3 | B (does not activate 5HT2A sensor assay in agonist mode) | B (does not activate 5HT2A sensor assay in agonist mode) | B (does not activate 5HT2A sensor assay in agonist mode) | < 10 µM
2 | Cc1cc2cc(F)ccc2n1C[C@@H](C)N(C)C [Example 73, (R)-1-(5-fluoro-2-methyl-1H-indol-1-yl)-N,N-dimethylpropan-2-amine] | B (inhibits 5HT response by 75% to 100%) | B (inhibits 5HT response by 75% to 100%) | A (inhibits 5HT response by >100%) | 1.5 to 3 | 1.5 to 3 | B (does not activate 5HT2A sensor assay in agonist mode) | B (does not activate 5HT2A sensor assay in agonist mode) | A (activates 5HT2A sensor assay in agonist mode) | > 10 µM
3 | Cc1cn(C[C@@H](C)N(C)C)c2ccc(F)cc12 [Example 74, (R)-1-(5-fluoro-3-methyl-1H-indol-1-yl)-N,N-dimethylpropan-2-amine] | A (inhibits 5HT response by >100%) | A (inhibits 5HT response by >100%) | B (inhibits 5HT response by 75% to 100%) | 1.5 to 3 | 1.5 to 3 | B (does not activate 5HT2A sensor assay in agonist mode) | B (does not activate 5HT2A sensor assay in agonist mode) | B (does not activate 5HT2A sensor assay in agonist mode) | > 10 µM
4 | CC[C@H](Cn1ccc2cc(OC)ccc21)N(C)C [Example 75, (R)-1-(5-methoxy-1H-indol-1-yl)-N,N-dimethylbutan-2-amine] | A (inhibits 5HT response by >100%) | A (inhibits 5HT response by >100%) | A (inhibits 5HT response by >100%) | < 1.5 | < 1.5 | B (does not activate 5HT2A sensor assay in agonist mode) | B (does not activate 5HT2A sensor assay in agonist mode) | B (does not activate 5HT2A sensor assay in agonist mode) | > 10 µM
5 | CC[C@@H](Cn1ccc2cc(OC)ccc21)N(C)C [Example 76, (S)-1-(5-methoxy-1H-indol-1-yl)-N,N-dimethylbutan-2-amine] | A (inhibits 5HT response by >100%) | A (inhibits 5HT response by >100%) | A (inhibits 5HT response by >100%) | 1.5 to 3 | 1.5 to 3 | B (does not activate 5HT2A sensor assay in agonist mode) | B (does not activate 5HT2A sensor assay in agonist mode) | B (does not activate 5HT2A sensor assay in agonist mode) | > 10 µM
